Experimental data published in patent US9636021B2, “Flavonoid compounds of low toxicity for biological imaging applications” (The University of Akron, priority 2014, dated 2017).

What was measured:
[1] = absorbance and fluorescence spectra in DMSO; format: physicochemical
Text: The absorbance and fluorescence spectra of compounds 1-6 in dimethyl sulfoxide (DMSO) were investigated and the results are in Table 1.

[2] = target: bovine serum albumin (BSA) (Bos taurus, UniProt P02769); test: fluorescence turn-on with BSA in PBS buffer; format: binding; details: for detection limit (10% increase in fluorescence emission) / visual recognizable detection limit (S/N above 3:1): BSA; for F(+)/F(−) fluorescence intensity with BSA / without BSA: BSA 1.0 mg/ml; for F(+)/F(−) fluorescence intensity with BSA / without BSA / λabs(+) / λem(+) / λabs(−) / λem(−): 10 μM dye; for F(+)/F(−) fluorescence intensity with BSA / without BSA / fluorescence in the absence of BSA / λabs(+) / λem(+) / λabs(−) / λem(−): 10 mM PBS, 0.5% DMSO, pH 7.4; for fluorescence in the absence of BSA: aqueous buffer; for λabs(+) / λem(+): with BSA 1.0 mg/ml; for λabs(−) / λem(−): without BSA
Procedure: In the aqueous buffer (0.5% DMSO, 10 mM of PBS, pH=7.4), the BSA binding-induced fluorescence turn-on was so large that it could be easily seen by naked eye. […] The intramolecular charge transfer along the D-A conjugated backbone plays a very important role in the environment-sensitivity of the flavone. All the evidence consistently pointed to the flavone dye entering the hydrophobic site of BSA.
Generally, the detection limit can be defined as the analyte concentration at which a 10% increase in fluorescence emission can be measured.
Therefore, the detection limits of compounds 1-6 were 2.6, 0.14, 0.59, 0.09, 14, and 3.4 μg/mL, respectively. For Off/On type fluorescent sensor, the Signal-to-Noise (S/N) ratio above 3:1 is considered reliable for visual evaluation. The visual recognizable detection limits of compounds 1-6 were calculated as 78, 4.2, 17.7, 2.7, 420, and 102 μg/mL, respectively. The reference range for serum albumin concentration in human blood plasma is approximately 35-50 mg/mL. Even in fish, the concentration of serum albumins can reach 0.5-5 mg/mL. The detection limits of the compounds were much lower than serum albumin concentration, indicating the capability for actual blood sample testing.

dye-BSA complexes = dye-BSA complexes (Bos taurus, UniProt P02769); test: photostability of dye-BSA complexes under continuous UV irradiation; format: physicochemical, bovine; details: 365 nm, 500 μW/cm2, 10 μM dye, 1.0 mg/mL BSA
Procedure: The photostability of flavone dyes 1-6 in the presence of BSA was also examined to evaluate the application for long-term imaging. The dye-BSA complexes (10 μM of compounds 1-6, 1.0 mg/mL of BSA in 10 mM PBS buffer containing 0.5% DMSO, pH=7.4) were placed in cuvette cells, then were continuously irradiated under a hand-held UV lamp (λ=365 nm, 500 μW/cm2).

bovine serum albumin (BSA), sequence (P02769 25-607): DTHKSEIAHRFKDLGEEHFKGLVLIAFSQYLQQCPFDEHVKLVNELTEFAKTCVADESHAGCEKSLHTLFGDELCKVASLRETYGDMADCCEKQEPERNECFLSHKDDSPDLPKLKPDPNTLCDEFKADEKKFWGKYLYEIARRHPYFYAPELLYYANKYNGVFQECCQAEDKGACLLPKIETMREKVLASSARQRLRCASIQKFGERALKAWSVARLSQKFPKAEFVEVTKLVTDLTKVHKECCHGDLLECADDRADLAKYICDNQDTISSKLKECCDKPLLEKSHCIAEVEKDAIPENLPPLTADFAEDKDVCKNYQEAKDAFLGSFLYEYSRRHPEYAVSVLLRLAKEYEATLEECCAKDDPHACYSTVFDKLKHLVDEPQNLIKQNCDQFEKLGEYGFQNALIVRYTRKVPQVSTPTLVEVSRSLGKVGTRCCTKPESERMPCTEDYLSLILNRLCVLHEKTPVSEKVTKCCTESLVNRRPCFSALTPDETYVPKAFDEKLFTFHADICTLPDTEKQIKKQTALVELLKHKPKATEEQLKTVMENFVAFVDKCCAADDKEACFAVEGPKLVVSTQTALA
dye-BSA complexes, sequence (P02769 25-607, one chain of several): as the sequence (P02769 25-607) above

Φ [1] [%]	λabs [1] [nm]	detection limit (10% increase in fluorescence emission) [2] [µg/mL]	visual recognizable detection limit (S/N above 3:1) [2] [µg/mL]	F(+)/F(−) fluorescence intensity with BSA / without BSA [2]	fluorescence in the absence of BSA [2]	λabs(+) [2] [nm]	λem(+) [2] [nm]	λabs(−) [2] [nm]	λem(−) [2] [nm]	photostability under UV irradiation (dye-BSA complexes)	λem [1] [nm]	Compound
14.1	403	0.14	4.2	740	almost no fluorescence	415	506	410	555	–	–	CCOCc1ccc2oc(-c3ccc(N(C)C)cc3)c(O)c(=O)c2c1 [compound 2, 2-(4-(dimethylamino)phenyl)-6-(ethoxymethyl)-3-hydroxy-4H-chromen-4-one]
7.2	394	3.4	102	29	–	386	512	373	522	fluorescence quenching	–	Nc1ccc(-c2oc3ccccc3c(=O)c2O)cc1 [compound 6, 2-(4-aminophenyl)-3-hydroxy-4H-chromen-4-one]
11.0	404	0.59	17.7	170	almost no fluorescence	409	552	400	582	–	–	Cc1ccc2oc(-c3ccc(N(C)C)cc3)c(O)c(=O)c2c1 [compound 3, 2-(4-(dimethylamino)phenyl)-3-hydroxy-6-methyl-4H-chromen-4-one]
5.4	363	14	420	7.0	–	365	514	357	452	fluorescence quenching	505	CC(=O)Nc1ccc(-c2oc3ccccc3c(=O)c2O)cc1 [compound 5, N-(4-(3-hydroxy-4-oxo-4H-chromen-2-yl)phenyl)acetamide]
